Structures can show the parent of a compound that is named as a salt. Where two headings read alike, the source gives them in different places.
Tests used:
[1] = system: Escherichia coli expressing NDM-1 (CLB30005, CLB30016); type: cell-based; conditions: with imipenem 1 μg/ml; 95% inhibition of bacterial growth
Summary of the method: (§1)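 Growth read by absorbance after 22–24 h at 35 °C in CAMHB, with test compound alone or combined with 1 μg/ml imipenem. Inocula came from overnight 35 °C blood-agar colonies, set to a defined OD600 and diluted 1:100. Value is the inhibitor concentration giving synergy.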

[2] = system: Klebsiella pneumoniae expressing VIM-1 (IHMA599644); type: cell-based; conditions: with imipenem 1 μg/ml; 95% inhibition of bacterial growth
Summary of the method: as §1

[3] = system: Serratia marcescens expressing IMP-1 (CL5741); type: cell-based; conditions: with imipenem 1 μg/ml; 95% inhibition of bacterial growth
Summary of the method: as §1

[4] = system: Pseudomonas aeruginosa PAO1 MB9798 (efflux+, IMP-1); conditions: imipenem at 2 μg/mL
Summary of the method: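 Isogenic PAO1 pair (efflux+ MB9798, efflux− MB9799, both IMP-1) tested by microbroth MIC with fixed imipenem and/or ceftazidime, usually at CLSI breakpoint, plus fixed class A/C inhibitor against AmpC. MBL inhibitor titrated; concentration restoring susceptibility recorded and fold difference between strains taken as efflux extent.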

[5] = ratio MITC95 PA 9798/MITC95 PA 9799
[6] = fold difference between efflux + (MB9798) and efflux − (MB9799) strains

Compound	Escherichia coli (NDM-1) MITC95 [1] [µM]	Klebsiella pneumoniae (VIM-1) MITC95 [2] [µM]	Serratia marcescens (IMP-1) MITC95 [3] [µM]	Efflux ratio [4, 5]	Efflux ratio [4, 6]
NC[C@H]1CCN(S(=O)(=O)c2ccc(-c3cccc4[nH]c(N)nc34)c(-c3nn[nH]n3)c2S(N)(=O)=O)C1 [Example 253, (R)-3-(2-amino-1H-benzo[d]imidazol-4-yl)-6-((3-(aminomethyl)pyrrolidin-1-yl)sulfonyl)-2-(2H-tetrazol-5-yl)benzenesulfonamide]	1.563	1.563	0.7813		
NCC(=O)NC1C=C(c2ccc(S(=O)(=O)N[C@@H]3CCNC3)c(S(N)(=O)=O)c2-c2nn[nH]n2)CCC1 (stereo partly drawn) [Example 269, 2-Amino-N-(4′-(N—((R)-pyrrolidin-3-yl)sulfamoyl)-3′-sulfamoyl-2′-(2H-tetrazol-5-yl)-3,4,5,6-tetrahydro-[1,1′-biphenyl]-3-yl)acetamide]	1.563	3.125	1.563		
Cn1nnc2c(-c3ccc(S(=O)(=O)N[C@H]4CCNC4)c(S(N)(=O)=O)c3-c3nn[nH]n3)cccc21 [Example 293, (S)-4-(1-methyl-1H-benzo[d][1,2,3]triazol-4-yl)-N1-(pyrrolidin-3-yl)-3-(2H-tetrazol-5-yl)benzene-1,2-disulfonamide]	3.125	3.125	3.125		
Nc1ccc(-c2ccc(S(=O)(=O)NC[C@H](N)CO)c(S(N)(=O)=O)c2-c2nn[nH]n2)cn1 [Example 297, (S)—N^1-(2-amino-3-hydroxypropyl)-4-(6-aminopyridin-3-yl)-3-(2H-tetrazol-5-yl) benzene-1,2-disulfonamide]		1.563	0.7813	1.00	
C[C@H](CN)NS(=O)(=O)c1ccc(-c2ccnc(N)c2)c(-c2nn[nH]n2)c1S(N)(=O)=O [Example 317, (R)—N1-(1-aminopropan-2-yl)-4-(2-aminopyridin-4-yl)-3-(2H-tetrazol-5-yl) benzene-1,2-disulfonamide]		3.125	1.563	0.50	
N[C@@H]1CNC[C@@H]1NS(=O)(=O)c1ccc(-c2cnc3cc[nH]c3c2)c(-c2nn[nH]n2)c1S(N)(=O)=O [Example 326, N1-((3S,4R)-4-aminopyrrolidin-3-yl)-4-(1H-pyrrolo[3,2-b]pyridin-6-yl)-3-(2H-tetrazol-5-yl)benzene-1,2-disulfonamide]		1.563	1.563	1.00	
NCCNC(=O)c1cccc(-c2ccc(S(=O)(=O)NCCN)c(S(N)(=O)=O)c2-c2nn[nH]n2)c1 [Example 334, N-(2-aminoethyl)-4′-(N-(2-aminoethyl)sulfamoyl)-3′-sulfamoyl-2′-(2H-tetrazol-5-yl)-[1,1′-biphenyl]-3-carboxamide]		0.7813	0.7813	2.00	
NCCNS(=O)(=O)c1ccc(-c2cccc(C(=O)N[C@@H]3CNC[C@H]3O)c2)c(-c2nn[nH]n2)c1S(N)(=O)=O [Example 344, 4′-(N-(2-aminoethyl)sulfamoyl)-N-((3R,4R)-4-hydroxypyrrolidin-3-yl)-3′-sulfamoyl-2′-(2H-tetrazol-5-yl)-[1,1′-biphenyl]-3-carboxamide]	0.7813	1.563	1.563		
NCCNS(=O)(=O)c1ccc(-c2cccc3sc(CN)nc23)c(-c2nn[nH]n2)c1S(N)(=O)=O [Example 345, N^1-(2-aminoethyl)-4-(2-(aminomethyl)benzo[d]thiazol-4-yl)-3-(2H-tetrazol-5-yl)benzene-1,2-disulfonamide]		0.7813	0.7813	1.00	
NCCNS(=O)(=O)c1ccc(-c2cccc(-c3c[nH]c(N)n3)c2)c(-c2nn[nH]n2)c1S(N)(=O)=O [Example 353, 3′-(2-amino-1H-imidazol-4-yl)-N4-(2-aminoethyl)-2-(2H-tetrazol-5-yl)-[1,1′-biphenyl]-3,4-disulfonamide]		1.563	0.7813	2.00	
NCc1nc2c(-c3ccc(S(=O)(=O)N[C@H](CN)CO)c(S(N)(=O)=O)c3-c3nn[nH]n3)cccc2s1 [Example 363, (R)—N1-(1-amino-3-hydroxypropan-2-yl)-4-(2-(aminomethyl)benzo[d]thiazol-4-yl)-3-(2H-tetrazol-5-yl)benzene-1,2-disulfonamide]	3.125	3.125		4.00	
NC[C@H](N)CNS(=O)(=O)c1ccc(-c2cnc3cc[nH]c3c2)c(-c2nn[nH]n2)c1S(N)(=O)=O [Example 373, (S)-N1-(2,3-diaminopropyl)-4-(1H-pyrrolo[3,2-b]pyridin-6-yl)-3-(2H-tetrazol-5-yl)benzene-1,2-disulfonamide]		3.125	1.563	1.00	
NC[C@@H](N)CNS(=O)(=O)c1ccc(-c2cccc3[nH]c(N)nc23)c(-c2nn[nH]n2)c1S(N)(=O)=O [Example 375, (R)-4-(2-amino-1H-benzo[d]imidazol-4-yl)-N1-(2,3-diaminopropyl)-3-(2H-tetrazol-5-yl)benzene-1,2-disulfonamide]		1.563	1.563	1.00	
NC[C@@H](CO)NS(=O)(=O)c1ccc(-c2ccnc(N)c2)c(-c2nn[nH]n2)c1S(N)(=O)=O [Example 380, (S)—N1-(1-amino-3-hydroxypropan-2-yl)-4-(2-aminopyridin-4-yl)-3-(2H-tetrazol-5-yl)benzene-1,2-disulfonamide]		1.563	0.7813	1.00	
C[C@@H](N)CNS(=O)(=O)c1ccc(-c2cccc3sc(N)nc23)c(-c2nn[nH]n2)c1S(N)(=O)=O [Example 390, 4-(2-amino-1,3-benzothiazol-4-yl)-N^1-[(2R)-2-aminopropyl]-3-(2H-tetrazol-5-yl)benzene-1,2-disulfonamide]	3.125	3.125	1.563		
Nc1nc2c(-c3ccc(S(=O)(=O)N[C@H]4CCNC4)c(S(N)(=O)=O)c3-c3nn[nH]n3)cc(F)cc2[nH]1 [Example 399, (S)-4-(2-amino-6-fluoro-1H-benzo[d]imidazol-4-yl)-N^1-(pyrrolidin-3-yl)-3-(2H-tetrazol-5-yl)benzene-1,2-disulfonamide]	0.7813	1.563	1.563		
NCCNS(=O)(=O)c1ccc(-c2ccc3nccn3c2)c(-c2nn[nH]n2)c1S(N)(=O)=O [Example 401, N^1-(2-aminoethyl)-4-(imidazo[1,2-a]pyridin-6-yl)-3-(2H-tetrazol-5-yl)benzene-1,2-disulfonamide]	0.7813	1.563			
NC[C@@H](O)CNS(=O)(=O)c1ccc(-c2ccnc(N)c2)c(-c2nn[nH]n2)c1S(N)(=O)=O [Example 419, (R)-N^1-(3-amino-2-hydroxypropyl)-4-(2-aminopyridin-4-yl)-3-(2H-tetrazol-5-yl)benzene-1,2-disulfonamide]	0.1953	1.563	0.7813		
Nc1nc2c(-c3ccc(S(=O)(=O)N[C@@H]4CNC[C@H]4N)c(S(N)(=O)=O)c3-c3nn[nH]n3)cccc2[nH]1 [Example 424, 4-(2-amino-1H-benzo[d]imidazol-4-yl)-N^1-((3R,4R)-4-aminopyrrolidin-3-yl)-3-(2H-tetrazol-5-yl)benzene-1,2-disulfonamide]	0.7813	1.563	1.563		
NCCNCc1sc(N)nc1-c1cccc(-c2ccc(S(=O)(=O)N[C@@H]3CCNC3)c(S(N)(=O)=O)c2-c2nnn[nH]2)c1 [Example 433, (R)-3′-(2-amino-5-(((2-aminoethyl)amino)methyl)thiazol-4-yl)-N^4-(pyrrolidin-3-yl)-2-(1H-tetrazol-5-yl)-[1,1′-biphenyl]-3,4-disulfonamide]	0.7813	1.563	1.563		
NC[C@]1(NS(=O)(=O)c2ccc(-c3ccc(N)nc3)c(-c3nn[nH]n3)c2S(N)(=O)=O)CCNC1 [Example 486, (R)-N1-(3-(aminomethyl)pyrrolidin-3-yl)-4-(6-aminopyridin-3-yl)-3-(2H-tetrazol-5-yl)benzene-1,2-disulfonamide dihydrochloride]	0.7813	1.563			2.00
NC[C@@]1(NS(=O)(=O)c2ccc(-c3ccc(N)nc3)c(-c3nn[nH]n3)c2S(N)(=O)=O)CCNC1 [Example 487, (S)-N1-(3-(aminomethyl)pyrrolidin-3-yl)-4-(6-aminopyridin-3-yl)-3-(2H-tetrazol-5-yl)benzene-1,2-disulfonamide dihydrochloride]		1.563	0.7813		1.00

From patent US10544130B2, “Metallo-beta-lactamase inhibitors” (priority 2015, dated 2020)
